From PubChem BioAssay AID2060505 (Molecular Pharmacology Branch, DTP, NCI, 2025)

System: 633275-114-R-J1-PDC complex spheroids, viability
Test: Anticancer human tumor 633275-114-R-J1-PDC patient-derived endometrial adenocarcinoma cell line growth inhibition [GQUAD]
Conditions: for IC50: curve of first compound; for viability, T/C: stronger effect = lower value; active = viability on the fitted dose curve at most 10% of control; inactive = the rest
Procedure, shortened: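 Tumor cells were grown as complex spheroids with HUVEC endothelial cells and mesenchymal stem cells as stroma. G-quadruplex stabilizers were combined with targeted agents over half-log dilutions from near the clinical Cmax, or from 10 microM.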

[1] = second compound 0.0316 µM, first compound 0.0316 µM
[2] = second compound 0.0316 µM, first compound 0.1 µM
[3] = second compound 0.0316 µM, first compound 0.316 µM
[4] = second compound 0.0316 µM, first compound 1 µM
[5] = second compound 0.0316 µM, first compound 3.16 µM
[6] = second compound 0.0316 µM, first compound 10 µM
[7] = second compound 0.1 µM, first compound 0.0316 µM
[8] = second compound 0.1 µM, first compound 0.1 µM
[9] = second compound 0.1 µM, first compound 0.316 µM
[10] = second compound 0.1 µM, first compound 1 µM
[11] = second compound 0.1 µM, first compound 3.16 µM
[12] = second compound 0.1 µM, first compound 10 µM
[13] = second compound 0.316 µM, first compound 0.0316 µM
[14] = second compound 0.316 µM, first compound 0.1 µM
[15] = second compound 0.316 µM, first compound 0.316 µM
[16] = second compound 0.316 µM, first compound 1 µM
[17] = second compound 0.316 µM, first compound 3.16 µM
[18] = second compound 0.316 µM, first compound 10 µM
[19] = second compound 1 µM, first compound 0.0316 µM
[20] = second compound 1 µM, first compound 0.1 µM
[21] = second compound 1 µM, first compound 0.316 µM
[22] = second compound 1 µM, first compound 1 µM
[23] = second compound 1 µM, first compound 3.16 µM
[24] = second compound 1 µM, first compound 10 µM
[25] = second compound 3.16 µM, first compound 0.0316 µM
[26] = second compound 3.16 µM, first compound 0.1 µM
[27] = second compound 3.16 µM, first compound 0.316 µM
[28] = second compound 3.16 µM, first compound 1 µM
[29] = second compound 3.16 µM, first compound 3.16 µM
[30] = second compound 3.16 µM, first compound 10 µM
[31] = second compound 10 µM, first compound 0.0316 µM
[32] = second compound 10 µM, first compound 0.1 µM
[33] = second compound 10 µM, first compound 0.316 µM
[34] = second compound 10 µM, first compound 1 µM
[35] = second compound 10 µM, first compound 3.16 µM
[36] = second compound 10 µM, first compound 10 µM
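Note: spheroids exposed to the agents for seven days.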
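Throughout, for viability, T/C: percent of DMSO vehicle control viability which is 100%.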

COc1cccc2c1C(=O)c1c(O)c3c(c(O)c1C2=O)CC(O)(C(=O)CO)CC3OC1CC(N)C(O)C(C)O1 (stereo not drawn) + Cc1[nH]c2ccc(F)cc2c1-c1nc2c3cccnc3c3ncccc3c2[nH]1
94.6 nM: IC50 (second compound 0.1 µM)
82.3 nM: IC50 (second compound 0.316 µM)
73 nM: IC50 (second compound 1 µM)
39.7 nM: IC50 (second compound 10 µM)
89.7 nM: IC50 (second compound 0.0316 µM)
inactive: viability, T/C [1] 64.4% | viability, T/C [2] 47.5% | viability, T/C [3] 32% | viability, T/C [4] 21.5% | viability, T/C [7] 65.3% | viability, T/C [8] 46.2% | viability, T/C [9] 35.3% | viability, T/C [10] 20.6% | viability, T/C [13] 62.5% | viability, T/C [14] 46% | viability, T/C [15] 32.3% | viability, T/C [16] 20.3% | viability, T/C [19] 62.2% | viability, T/C [20] 44% | viability, T/C [21] 30.6% | viability, T/C [22] 20.6% | viability, T/C [25] 54.4% | viability, T/C [26] 40.2% | viability, T/C [27] 30.9% | viability, T/C [28] 18.6% | viability, T/C [31] 52.9% | viability, T/C [32] 39.7% | viability, T/C [33] 30.1% | viability, T/C [34] 19.4%
active: viability, T/C [5] 2.36% | viability, T/C [6] 1.69% | viability, T/C [11] 1.91% | viability, T/C [12] 1.66% | viability, T/C [17] 2.16% | viability, T/C [18] 1.4% | viability, T/C [23] 1.92% | viability, T/C [24] 1.57% | viability, T/C [29] 2.97% | viability, T/C [30] 1.41% | viability, T/C [35] 2.39% | viability, T/C [36] 1.46%
45.4 nM: IC50 (second compound 3.16 µM)

Cc1cccc(N(C)C(=O)C2C(O)CCN2c2nc(C)cc(C(F)(F)F)c2C#N)c1 (stereo not drawn) + Cc1[nH]c2ccc(F)cc2c1-c1nc2c3cccnc3c3ncccc3c2[nH]1
> 10000 nM: IC50 (second compound 0.0316 µM) | IC50 (second compound 0.1 µM) | IC50 (second compound 0.316 µM) | IC50 (second compound 1 µM) | IC50 (second compound 3.16 µM) | IC50 (second compound 10 µM)
inactive: viability, T/C [1] 108% | viability, T/C [2] 97.1% | viability, T/C [3] 103% | viability, T/C [4] 94% | viability, T/C [5] 99.8% | viability, T/C [6] 99.4% | viability, T/C [7] 99.2% | viability, T/C [8] 99.9% | viability, T/C [9] 97.4% | viability, T/C [10] 94.3% | viability, T/C [11] 91.6% | viability, T/C [12] 101% | viability, T/C [13] 91.1% | viability, T/C [14] 101% | viability, T/C [15] 99.5% | viability, T/C [16] 98.9% | viability, T/C [17] 98% | viability, T/C [18] 99.2% | viability, T/C [19] 86.4% | viability, T/C [20] 86.2% | viability, T/C [21] 90.1% | viability, T/C [22] 90.4% | viability, T/C [23] 91.7% | viability, T/C [24] 92.9% | viability, T/C [25] 73.8% | viability, T/C [26] 71.6% | viability, T/C [27] 76.7% | viability, T/C [28] 74.4% | viability, T/C [29] 79.3% | viability, T/C [30] 75.5% | viability, T/C [31] 69.6% | viability, T/C [32] 77.7% | viability, T/C [33] 79.1% | viability, T/C [34] 72.6% | viability, T/C [35] 69.8% | viability, T/C [36] 71.2%

Nc1ccn(C2OC(CO)C(O)C2(F)F)c(=O)n1 (stereo not drawn) + Cc1[nH]c2ccc(F)cc2c1-c1nc2c3cccnc3c3ncccc3c2[nH]1
inactive: viability, T/C [1] 29.7% | viability, T/C [2] 25.6% | viability, T/C [3] 25.9% | viability, T/C [4] 26.4% | viability, T/C [5] 22.9% | viability, T/C [6] 24.4% | viability, T/C [7] 33.2% | viability, T/C [8] 24.3% | viability, T/C [9] 26.4% | viability, T/C [10] 27.3% | viability, T/C [11] 24.8% | viability, T/C [12] 20.9% | viability, T/C [13] 31.2% | viability, T/C [14] 28.8% | viability, T/C [15] 26.1% | viability, T/C [16] 24.2% | viability, T/C [17] 27.1% | viability, T/C [18] 19.9% | viability, T/C [19] 30.9% | viability, T/C [20] 25.6% | viability, T/C [21] 26% | viability, T/C [22] 25.9% | viability, T/C [23] 24% | viability, T/C [24] 20.1% | viability, T/C [25] 26.1% | viability, T/C [26] 24.4% | viability, T/C [27] 22.6% | viability, T/C [28] 23.4% | viability, T/C [29] 25.7% | viability, T/C [30] 17.9% | viability, T/C [31] 26.8% | viability, T/C [32] 24.5% | viability, T/C [33] 23.8% | viability, T/C [34] 24.1% | viability, T/C [35] 22.5% | viability, T/C [36] 18.8%
< 31.6 nM: IC50 (second compound 0.0316 µM) | IC50 (second compound 0.1 µM) | IC50 (second compound 0.316 µM) | IC50 (second compound 1 µM) | IC50 (second compound 3.16 µM) | IC50 (second compound 10 µM)

O=C(c1cc(Cc2n[nH]c(=O)c3ccccc23)ccc1F)N1CCN(C(=O)C2CC2)CC1 + Cc1[nH]c2ccc(F)cc2c1-c1nc2c3cccnc3c3ncccc3c2[nH]1
> 10000 nM: IC50 (second compound 0.0316 µM) | IC50 (second compound 0.1 µM) | IC50 (second compound 0.316 µM) | IC50 (second compound 1 µM) | IC50 (second compound 10 µM)
inactive: viability, T/C [1] 90% | viability, T/C [2] 88.3% | viability, T/C [3] 88% | viability, T/C [4] 84.7% | viability, T/C [5] 80.5% | viability, T/C [6] 64.5% | viability, T/C [7] 98% | viability, T/C [8] 89.9% | viability, T/C [9] 94% | viability, T/C [10] 79.5% | viability, T/C [11] 80% | viability, T/C [12] 56.9% | viability, T/C [13] 92.1% | viability, T/C [14] 93% | viability, T/C [15] 88.8% | viability, T/C [16] 83.1% | viability, T/C [17] 76% | viability, T/C [18] 55.4% | viability, T/C [19] 90.6% | viability, T/C [20] 89.7% | viability, T/C [21] 88.4% | viability, T/C [22] 77.1% | viability, T/C [23] 74.1% | viability, T/C [24] 56.7% | viability, T/C [25] 69.8% | viability, T/C [26] 67.4% | viability, T/C [27] 68.4% | viability, T/C [28] 63.5% | viability, T/C [29] 59.5% | viability, T/C [30] 48.2% | viability, T/C [31] 68.9% | viability, T/C [32] 66.5% | viability, T/C [33] 70.2% | viability, T/C [34] 62.1% | viability, T/C [35] 61.1% | viability, T/C [36] 49.4%
8310 nM: IC50 (second compound 3.16 µM)
